Laboratory results published in PubChem BioAssay AID248 (DTP/NCI, 2004).
Several values for one entry are separate records, joined by “and”; a condition that tells them apart may be missing. Equal entries are not always repeated. Inconclusive results and toxic doses are left out. Rule as the data show it: active = T/C of 150% or more; inactive = T/C below 125%.

Test system: L1210 leukemia ip in BDF1 mice, survival T/C
Experiment: NCI In Vivo Anticancer Drug Screen. Data for tumor model L1210 Leukemia (intraperitoneal) in B6D2F1 (BDF1) mice
Settings: endpoint: mean survival time, higher = longer survival
In short: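 Ratio derived from survival: compound-dosed mice over vehicle-dosed mice, all bearing a transplantable tumor.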

[1] = dose: 100.0 mg/kg/injection, schedule: Q01DX009 (ip), vehicle: saline with Tween-80
[2] = dose: 400.0 mg/kg/injection, schedule: Q01DX009 (ip), vehicle: saline with Tween-80
[3] = dose: 100.0 mg/kg/injection, schedule: Q04DX003 (ip), vehicle: Klucel (hydroxypropylcellulose) (HPC)
[4] = dose: 200.0 mg/kg/injection, schedule: Q04DX003 (ip), vehicle: Klucel (hydroxypropylcellulose) (HPC)
[5] = dose: 100.0 mg/kg/injection, schedule: Q04DX003 (ip), vehicle: saline
[6] = dose: 200.0 mg/kg/injection, schedule: Q04DX003 (ip), vehicle: saline
[7] = dose: 400.0 mg/kg/injection, schedule: Q04DX003 (ip), vehicle: saline
[8] = dose: 100.0 mg/kg/injection, schedule: Q01DX001 (ip), vehicle: saline
[9] = dose: 200.0 mg/kg/injection, schedule: Q01DX001 (ip), vehicle: saline
[10] = dose: 400.0 mg/kg/injection, schedule: Q01DX001 (ip), vehicle: saline
[11] = dose: 100.0 mg/kg/injection, schedule: Q04DX003 (ip), vehicle: saline with Tween-80
[12] = dose: 200.0 mg/kg/injection, schedule: Q04DX003 (ip), vehicle: saline with Tween-80
[13] = dose: 400.0 mg/kg/injection, schedule: Q04DX003 (ip), vehicle: saline with Tween-80
[14] = dose: 200.0 mg/kg/injection, schedule: Q01DX009 (ip), vehicle: saline with Tween-80
[15] = dose: 200.0 mg/kg/injection, schedule: Q01DX001 (ip), vehicle: saline with Tween-80
[16] = dose: 400.0 mg/kg/injection, schedule: Q01DX001 (ip), vehicle: saline with Tween-80
[17] = dose: 75.0 mg/kg/injection, schedule: Q01DX001 (ip), vehicle: carboxymethylcellulose (CMC)
[18] = dose: 150.0 mg/kg/injection, schedule: Q01DX001 (ip), vehicle: carboxymethylcellulose (CMC)

Measured: T/C

O=C(c1ccccc1)C(C(=O)c1ccccc1)C(C[N+](=O)[O-])c1ccccc1 (stereo not given)
inactive: dose: 100.0 mg/kg/injection, schedule: Q01DX001 (ip), vehicle: gum acacia 86 % of control | dose: 200.0 mg/kg/injection, schedule: Q01DX001 (ip), vehicle: gum acacia 86 % of control | dose: 400.0 mg/kg/injection, schedule: Q01DX001 (ip), vehicle: gum acacia 90 % of control

O=C(Nc1cccc(C(F)(F)F)c1)Nc1ccc2sc(=S)[nH]c2c1
inactive: dose: 6.25 mg/kg/injection, schedule: Q01DX009 (ip), vehicle: saline with Tween-80 95 % of control | dose: 12.5 mg/kg/injection, schedule: Q01DX009 (ip), vehicle: saline with Tween-80 93 % of control | dose: 25.0 mg/kg/injection, schedule: Q01DX009 (ip), vehicle: saline with Tween-80 93 % of control | dose: 50.0 mg/kg/injection, schedule: Q01DX009 (ip), vehicle: saline with Tween-80 86 % of control | [1] 86 % of control | [2] 95 % of control

CN(C)CCCNc1c2ccc(Cl)cc2nc2ccc(O)cc12
inactive: dose: 12.5 mg/kg/injection, schedule: Q04DX002 (ip), vehicle: saline 107 % of control | dose: 25.0 mg/kg/injection, schedule: Q04DX002 (ip), vehicle: saline 115 % of control

Oc1nc(/N=C2/N=c3ccc(Cl)cc3=N2)[nH]c1O
inactive: [3] 98 % of control | [4] 106 % of control | dose: 400.0 mg/kg/injection, schedule: Q04DX003 (ip), vehicle: Klucel (hydroxypropylcellulose) (HPC) 98 % of control

CC(C)C1CCC(N)CC1 (stereo not given)
inactive: dose: 75.0 mg/kg/injection, schedule: Q01DX001 (ip), vehicle: saline 100 % of control

OCNC(=S)SSC(=S)NCO
inactive: [5] 96 % of control | [6] 98 % of control | [7] 98 % of control

BrC1(C2(Br)N(c3ccccc3)CCN2c2ccccc2)N(c2ccccc2)CCN1c1ccccc1
inactive: dose: 7.5 mg/kg/injection, schedule: Q01DX001 (ip), vehicle: saline 105 % of control | dose: 7.5 mg/kg/injection, schedule: Q04DX003 (ip), vehicle: saline 108 % of control | dose: 15.0 mg/kg/injection, schedule: Q01DX001 (ip), vehicle: saline 105 % of control | dose: 15.0 mg/kg/injection, schedule: Q04DX003 (ip), vehicle: saline 106 % of control | dose: 30.0 mg/kg/injection, schedule: Q01DX001 (ip), vehicle: saline 112 % of control | dose: 30.0 mg/kg/injection, schedule: Q04DX003 (ip), vehicle: saline 100 % of control

CCC[N+](=CC1CCCCC1)CCC
inactive: [5] 104 % of control | [6] 95 % of control | [7] 91 % of control

O=C1/C=C2/C=CC=CN2C(=O)/C=C2/C=CC=CN12
inactive: dose: 50.0 mg/kg/injection, schedule: Q01DX001 (ip), vehicle: saline 104 % of control | [8] 101 % of control | [9] 104 % of control | [10] 97 % of control

Cc1ccccc1NC(=O)CS
inactive: [11] 95 % of control | [12] 88 % of control

C=C/C=C1\CCOC1=O
inactive: [8] 102 % of control | dose: 100.0 mg/kg/injection, schedule: Q01DX009 (ip), vehicle: saline 101 % of control and 112 % of control | dose: 100.0 mg/kg/injection, schedule: Q04DX002 (ip), vehicle: saline 100 % of control and 111 % of control | [5] 112 % of control | [9] 116 % of control | dose: 200.0 mg/kg/injection, schedule: Q01DX009 (ip), vehicle: saline 104 % of control and 118 % of control | dose: 200.0 mg/kg/injection, schedule: Q04DX002 (ip), vehicle: saline 104 % of control | [6] 100 % of control | [10] 110 % of control | dose: 400.0 mg/kg/injection, schedule: Q01DX009 (ip), vehicle: saline 107 % of control and 115 % of control | dose: 400.0 mg/kg/injection, schedule: Q04DX002 (ip), vehicle: saline 100 % of control and 102 % of control | [7] 115 % of control

CCOc1ccc(/C=C/[N+](=O)[O-])cc1
inactive: dose: 12.5 mg/kg/injection, schedule: Q01DX009 (ip), vehicle: Klucel (hydroxypropylcellulose) (HPC) 96 % of control | dose: 12.5 mg/kg/injection, schedule: Q04DX003 (ip), vehicle: Klucel (hydroxypropylcellulose) (HPC) 95 % of control | dose: 25.0 mg/kg/injection, schedule: Q01DX009 (ip), vehicle: Klucel (hydroxypropylcellulose) (HPC) 97 % of control | dose: 25.0 mg/kg/injection, schedule: Q04DX003 (ip), vehicle: Klucel (hydroxypropylcellulose) (HPC) 114 % of control | dose: 50.0 mg/kg/injection, schedule: Q01DX009 (ip), vehicle: Klucel (hydroxypropylcellulose) (HPC) 105 % of control | dose: 50.0 mg/kg/injection, schedule: Q04DX003 (ip), vehicle: Klucel (hydroxypropylcellulose) (HPC) 101 % of control | [3] 94 % of control | [4] 95 % of control

CCCOC(c1ccc2c(c1)OCO2)C(C)Br (stereo not given)
inactive: [11] 97 % of control | [12] 94 % of control | [13] 94 % of control

COC(=O)Cc1ccc([N+](=O)[O-])cc1
inactive: dose: 100.0 mg/kg/injection, schedule: Q01DX001 (ip), vehicle: carboxymethylcellulose (CMC) 94 % of control | dose: 200.0 mg/kg/injection, schedule: Q01DX001 (ip), vehicle: carboxymethylcellulose (CMC) 91 % of control | dose: 400.0 mg/kg/injection, schedule: Q01DX001 (ip), vehicle: carboxymethylcellulose (CMC) 88 % of control

O=C(O)/C=C/C(=O)NC1CCCCC1
inactive: [1] 94 % of control | [14] 96 % of control | [2] 98 % of control

O=C(Nc1cccc2ccccc12)OC1CCCCC1Br (stereo not given)
inactive: [15] 89 % of control | [16] 89 % of control

CNCc1cccc2ccccc12
inactive: [17] 101 % of control | [18] 101 % of control | dose: 300.0 mg/kg/injection, schedule: Q01DX001 (ip), vehicle: carboxymethylcellulose (CMC) 107 % of control

CC(=O)c1sc2sc(C(C)=O)c(NC(=S)Nc3cccc(C(F)(F)F)c3)c2c1NC(=S)Nc1cccc(C(F)(F)F)c1
inactive: dose: 50.0 mg/kg/injection, schedule: Q04DX002 (ip), vehicle: saline with Tween-80 98 % of control and 99 % of control | dose: 100.0 mg/kg/injection, schedule: Q01DX001 (ip), vehicle: saline with Tween-80 96 % of control | [1] 96 % of control and 89 % of control | [11] 93 % of control | [15] 92 % of control | [14] 101 % of control and 86 % of control | [12] 90 % of control | [16] 100 % of control | [2] 96 % of control and 91 % of control

COc1ccc2c(c1)CCCN2CCC#N
inactive: dose: 50.0 mg/kg/injection, schedule: Q04DX003 (ip), vehicle: other 106 % of control | dose: 100.0 mg/kg/injection, schedule: Q04DX003 (ip), vehicle: other 92 % of control | dose: 200.0 mg/kg/injection, schedule: Q04DX003 (ip), vehicle: other 108 % of control | dose: 400.0 mg/kg/injection, schedule: Q04DX003 (ip), vehicle: other 99 % of control

Cc1cc(SC#N)ncn1
inactive: dose: 5.0 mg/kg/injection, schedule: Q01DX001 (ip), vehicle: saline 98 % of control | dose: 10.0 mg/kg/injection, schedule: Q01DX001 (ip), vehicle: saline 101 % of control

COC(=O)CCCC1CC(=O)c2c(c(O)c3ccccc3c2O)C1=O (stereo not given)
inactive: dose: 100.0 mg/kg/injection, schedule: Q01DX005 (ip), vehicle: saline with Tween-80 92 % of control | [11] 119 % of control | dose: 200.0 mg/kg/injection, schedule: Q01DX005 (ip), vehicle: saline with Tween-80 95 % of control | [12] 105 % of control | dose: 400.0 mg/kg/injection, schedule: Q01DX005 (ip), vehicle: saline with Tween-80 97 % of control | [13] 103 % of control

O=C1CSC(=S)N1/N=C/c1c[nH]c2ccc(Br)cc12
inactive: [17] 100 % of control | [18] 97 % of control
